Results from patent publication US20220347305A1, “CONTROLLED RELEASE DRUG DIMERS” (Ripple Therapeutics Corporation, priority 2019, published 2022).

Assays:
[1] = Pellet formation by heat molding (heat processing of compounds); type: physicochemical; settings: processed ~10-30° C. above Tg or Tm, pressed into cylindrical mold ~1 mm x 1 mm, light microscopy
Procedure: Crystalline powder was melted at 185° C. and pellets were formed from 1 mm×1 mm cylindrical molds. The starting powder and heat-processed pellets were tested by differential scanning calorimetry (DSC; FIG. 1C) and X-ray powder diffraction (XRPD; FIG. 1D) to confirm heat-processing converted Compound 1 from the crystalline state to the glassy state.
Compounds that were collected as stable powders and/or gums were investigated for pellet formation by heat molding. Compounds were processed at a temperature ˜10-30° C. above their corresponding thermal transitions (glass transition temperature (Tg) for gums or amorphous powders or melting point (Tm) for crystalline powders) and pressed into a cylindrical mold of ˜1 mm in height×1 mm in diameter. Light microscopy was used to capture images of the heat-formed pellets. Temperatures used to achieve a melt for heat molding were in a range from 70° C. to 220° C.

[2] = Drug release from heat-molded pellets in phosphate buffered saline; type: physicochemical; settings: 37° C.; for Observation of pellet after 1-day incubation in release buffer: 4 mL PBS, shaker 115 rpm
Procedure: Drug release from heat-molded pellets of the compounds were assessed in phosphate buffered saline (PBS). Heat-molded pellets were placed in 20 ml glass vials and 2 ml of release buffer was added. Samples were incubated at 37° C. with constant agitation at 115 rpm. Release buffer was sampled and fully replaced with 2 ml of fresh buffer on days 1, 3, 7, 10, and 14. Samples were analyzed by high performance liquid chromatography (HPLC) to quantify drug products. Cumulative release was calculated as a percentage of total mass of starting pellets and was plotted over time.
Heat molded pellets of Compound 3, Compound 5, and Compound 8 were then placed in 20 mL glass vials and 4 mL of release buffer (phosphate buffered saline, PBS) was added. Samples were incubated at 37° C. on a shaker rotating at 115 rpm. […] Drug release from Compound 8 was assessed by HPLC from PBS release buffer weekly for 8 weeks with full buffer change at each time point.

[3] = Drug release and erosion of Compound 1 heat-molded pellets in release buffer (PBS, 1% FBS in PBS, 100% FBS); type: physicochemical; settings: 37° C., 115 rpm
Procedure: Heat-molded pellets from Compound 1 (˜1 mm×1 mm) were then placed in 20 mL glass vials and 2 mL of release buffer (either 100% phosphate buffered saline (PBS), 1% fetal bovine serum (FBS) in PBS, or 100% FBS) was added. Samples were incubated at 37° C. on a shaker rotating at 115 rpm. After 1 day, 3 days, 7 days, and subsequently in alternating 3 and 4 day intervals (i.e., 1, 3, 7, 10, 14 days etc.), release buffer was sampled directly (PBS) or syringe filtered, proteins were precipitated with acetonitrile, and drug release products were extracted. The samples were analyzed by high performance liquid chromatography (HPLC) to quantify drug products. Cumulative drug release was calculated and plotted as a percentage of the total drug in each pellet released over time (FIG. 1E).

Row | SMILES | Pellet formation by heat molding and handling properties of the pellet [1] | melting point | other results
1 | O=C(CCCCC(=O)Oc1ccc2c3c1O[C@H]1C(=O)CC[C@@]4(O)[C@@H](C2)N(CC2CC2)CC[C@]314)Oc1ccc2c3c1O[C@H]1C(=O)CC[C@@]4(O)[C@@H](C2)N(CC2CC2)CC[C@]314 [Compound 10, bis((4R,4aS,7aR,12bS)-3-(cyclopropylmethyl)-4a-hydroxy-7-oxo-2,3,4,4a,5,6,7,7a-octahydro-1H-4,12-methanobenzofuro[3,2-e]isoquinolin-9-yl) adipate] | didn't form a viscous liquid that could be pressed into a pellet |  | 
2 | O=C(Oc1ccc2c3c1O[C@H]1C(=O)CC[C@@]4(O)[C@@H](C2)N(CC2CC2)CC[C@]314)c1ccc(C(=O)Oc2ccc3c4c2O[C@H]2C(=O)CC[C@@]5(O)[C@@H](C3)N(CC3CC3)CC[C@]425)cc1 [Compound 16, bis((4R,4aS,7aR,12bS)-3-(cyclopropylmethyl)-4a-hydroxy-7-oxo-2,3,4,4a,5,6,7,7a-octahydro-1H-4,12-methanobenzofuro[3,2-e]isoquinolin-9-yl) terephthalate] |  |  | Pellet formation by heat molding and handling properties of the pellet ([1]; listed as Naltrexone-1,4-terephthalate-Naltrexone): did not form a heat processed pellet
3 | O=C(CCCCCCCCC(=O)N1CCCN(S(=O)(=O)c2cccc3cnccc23)CC1)N1CCCN(S(=O)(=O)c2cccc3cnccc23)CC1 [Compound 5, 1,10-bis(4-(isoquinolin-5-ylsulfonyl)-1,4-diazepan-1-yl)decane-1,10-dione] | successfully formed glassy, mostly transparent pellets |  | Observation of pellet after 1-day incubation in release buffer [2]: fragmented entirely to opaque particulates
4 | C[C@@H]1C[C@H]2[C@@H]3CCC4=CC(=O)C=C[C@]4(C)[C@@]3(F)[C@@H](O)C[C@]2(C)[C@@]1(O)C(=O)COC(=O)OCCOCCOCCOC(=O)OCC(=O)[C@@]1(O)[C@H](C)C[C@H]2[C@@H]3CCC4=CC(=O)C=C[C@]4(C)[C@@]3(F)[C@@H](O)C[C@@]21C [Compound 1, Dexamethasone-Triethylene Glycol-Dexamethasone] | formed into pellets in the glassy state |  | Erosion of pellets over time (representative images) [3]: surface erosion over time
5 | COc1ccc2c(c1)c(CC(=O)OCCOCCOCCOC(=O)Cc1c(C)n(C(=O)c3ccc(Cl)cc3)c3ccc(OC)cc13)c(C)n2C(=O)c1ccc(Cl)cc1 [Compound 8, (ethane-1,2-diylbis(oxy))bis(ethane-2,1-diyl) bis(2-(1-(4-chlorobenzoyl)-5-methoxy-2-methyl-1H-indol-3-yl)acetate)] | formed opaque yellow-tinted pellets that could be handled | 102 °C | Drug release from pellet assessed by HPLC ([2]; PBS release buffer, weekly for 8 weeks with full buffer change): Minimal drug release
6 | C=CCN1CC[C@]23c4c5ccc(OC(=O)CCCCC(=O)Oc6ccc7c8c6O[C@H]6C(=O)CC[C@@]9(O)[C@@H](C7)N(CC=C)CC[C@]869)c4O[C@H]2C(=O)CC[C@@]3(O)[C@H]1C5 [Compound 9, bis((4R,4aS,7aR,12bS)-3-allyl-4a-hydroxy-7-oxo-2,3,4,4a,5,6,7,7a-octahydro-1H-4,12-methanobenzofuro[3,2-e]isoquinolin-9-yl) adipate] |  | 120 °C | 
7 | O=C(OCCCCCCCOC(=O)N1CCCN(S(=O)(=O)c2cccc3cnccc23)CC1)N1CCCN(S(=O)(=O)c2cccc3cnccc23)CC1 [Compound 3, heptane-1,7-diyl bis(4-(isoquinolin-5-ylsulfonyl)-1,4-diazepane-1-carboxylate)] | successfully formed glassy, mostly transparent pellets |  | Observation of pellet after 1-day incubation in release buffer [2]: pellet shape changed to a clear gel
8 | N[C@@H](Cc1ccc(O)c(O)c1)C(=O)OCC1CCC(COC(=O)[C@@H](N)Cc2ccc(O)c(O)c2)CC1 (stereo partly drawn) [Compound 6, cyclohexane-1,4-diylbis(methylene) (2S,2′S)-bis(2-amino-3-(3,4-dihydroxyphenyl)propanoate)] |  | 161 to 166 °C | 
